Laboratory results as given in patent US20150038404A1, “MACROCYCLIC COMPOUNDS” (University of Florida Research Foundation, priority 2012, published 2015).

Columns and labels:
Type in all cases: cell-based
[1] = tested on: sICAM-1; experiment: Measurement of sICAM-1 levels in culture supernatants (AlphaLisa); details: elastase-challenged BEAS-2B cells, 6 h, P<0.05
Description: A significant difference in expression of fully glycosylated mICAM-1 (˜100 kDa) was observed between the control and elastase treatment, with maximum expression in the former. […] This inverse relationship is consistent with measurements of sICAM-1 levels in the culture supernatants and provided internal validation of the direct effects of elastase with the proteolytic cleavage of ICAM-1.
BEAS-2B cells (60,000) were seeded in collagen-coated 24-well plates. After overnight incubation, the media was replaced with supplement-free media and the cells were further incubated for 24 h. At the end of the incubation period, cells were replenished with new supplement-free media prior to treatment. Stock human neutrophil elastase solution was prepared in sodium acetate and test aliquots were further diluted in supplement-free medium. […] Control cells were treated with DMSO (1%) and sodium acetate in supplement-free medium (4%). The cells were incubated for 6 h. Culture supernatants were collected and sICAM-1 levels were determined using ICAM-1 AlphaLisa® Kit (Perkin Elmer) according to the manufacturer's instruction.

[2] = tested on: BEAS-2B cells; experiment: Morphology of elastase-treated bronchial epithelial cells; details: within 2 h of treatment with human neutrophil elastase
Description: FIG. 4. Human neutrophil elastase induces changes in morphology of BEAS-2B cells within 2 h of treatment.
An apparent change in cellular morphology of bronchial epithelial cells was observed within 2 h of elastase treatment, with cells becoming rounded, in contrast to the elongated appearance of control cells (FIG. 4). […] These observations indicated intercellular adhesion molecules as a possible direct target of exogenous elastase in bronchial epithelial cells. […] Several proteases have been implicated in the posttranslational modification of membrane-bound ICAM-1 (mICAM-1) to soluble ICAM-1 (sICAM-1), depending on the cell type. In endothelial, fibroblast and astrocyte cultures, sICAM-1 generation is mediated by a matrix metalloprotease or ADAM 17^24.

[3] = tested on: BEAS-2B cells; experiment: Cell viability (MTT) assay of bronchial epithelial cells challenged with elastase; details: within 24 h of treatment, read-out: IC50 of anti-proliferative activity on bronchial epithelial cells
Description: FIG. 3. […] HNE induced cell death after 24 h and this was alleviated by cotreatment with compound 1.
Bronchial epithelial cells (BEAS-2B, ATCC) were grown in bronchial epithelial basal media (BEBM, Lonza) supplemented with bronchial epithelial growth factors (Lonza) under a humidified environment with 5% CO2 at 37° C. BEAS-2B (5,000) cells were seeded in collagen-coated 96-well plates and treated with varying concentrations of elastase after 24 h of seeding. […] The cells were incubated for an additional 24 h before the addition of the MTT reagent. Cell viability was measured according to the manufacturer's instructions (Promega). IC50 calculations were done by GraphPad Prism 5.03 based on duplicate experiments.

| Molecule | Concentration giving significant decrease of sICAM-1 levels [1] [nM] | Effect on elastase-induced change in morphology of BEAS-2B cells [2] | IC50 [3] [nM] |
| --- | --- | --- | --- |
| CC(C)(C)C(=O)Oc1ccc(S(=O)(=O)Nc2ccccc2C(=O)NCC(=O)O)cc1 [sivelestat] | 320 | reverted |  |
| Elastase: human neutrophil elastase used to challenge bronchial epithelial cells |  |  | 82 |
